Source: ChEMBL document CHEMBL4316641, “Synthesis and Anti-HIV Profile of a Novel Tetrahydroindazolylbenzamide Derivative Obtained by Oxazolone Chemistry” (ACS Med Chem Lett, 2019)
Calls of active or inactive are those of the source. The calls are words filed in the database; no cut-off is given here.

Experiments:
[1] = test system: Human immunodeficiency virus; assay: Inhibition of reverse transcriptase in HIV1 NL4.3 infected in human HeLaP4 cells assessed as reduction in formation of reverse transcribed DNA at 50 fold antiviral EC50 incubated up to 60 mins by quantitative PCR analysis; type: cell-based
[2] = test system: Human immunodeficiency virus; assay: Antiviral activity against HIV infected in human MT4 cells assessed as inhibition of virus-induced cytopathogenicity by MTT assay; type: functional, organism-based
[3] = Selectivity index, ratio of CC50 for cytotoxicity against human MT4 cells assessed as reduction in cell viability by MTT assay to EC50 for antiviral activity against HIV infected in human MT4 cells assessed as inhibition of virus-induced cytopathogenicity by MTT assay; type: toxicity, cell-based; details: read-out: Ratio CC50/EC50
[4] = target: Human immunodeficiency virus type 1 integrase (Human immunodeficiency virus 1) (UniProt Q7ZJM1); assay: Inhibition of integrase in HIV1 NL4.3 infected in human HeLaP4 cells assessed as increase in increase in 2-LTR circles at 50 fold antiviral EC50 incubated up to 60 mins by quantitative PCR analysis; type: cell-based
[5] = test system: Human immunodeficiency virus; assay: Inhibition of reverse transcriptase in HIV1 NL4.3 infected in human HeLaP4 cells assessed as reduction in formation of 2-LTRs at 50 fold antiviral EC50 incubated up to 60 mins by quantitative PCR analysis; type: cell-based
[6] = Cytotoxicity against human MT4 cells assessed as reduction in cell viability by MTT assay; type: cell-based
[7] = test system: Human immunodeficiency virus; assay: Inhibition of reverse transcriptase in HIV1 NL4.3 infected in human HeLaP4 cells assessed as reduction in integrated provirus formation at 50 fold antiviral EC50 incubated up to 60 mins by quantitative PCR analysis; type: cell-based
[8] = test system: Human immunodeficiency virus; assay: Inhibition of reverse transcriptase in HIV1 NL4.3 infected in human HeLaP4 cells assessed as reduction in late reverse transcription by time of addition assay; type: cell-based
[9] = target: Human immunodeficiency virus type 1 integrase (Human immunodeficiency virus 1) (UniProt Q7ZJM1); assay: Inhibition of HIV integrase strand transfer activity

Sequence of Human immunodeficiency virus type 1 integrase (Human immunodeficiency virus 1) (Q7ZJM1 as listed by the source): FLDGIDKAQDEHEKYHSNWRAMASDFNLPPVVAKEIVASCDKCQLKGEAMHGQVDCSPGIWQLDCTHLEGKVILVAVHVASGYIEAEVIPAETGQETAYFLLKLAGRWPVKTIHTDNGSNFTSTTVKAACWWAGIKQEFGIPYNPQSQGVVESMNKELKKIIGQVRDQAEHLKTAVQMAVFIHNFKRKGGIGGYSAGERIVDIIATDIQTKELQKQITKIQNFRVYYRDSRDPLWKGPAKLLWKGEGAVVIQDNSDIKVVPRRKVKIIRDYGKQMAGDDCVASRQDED

Cc1cn([C@H]2C[C@H](N=[N+]=[N-])[C@@H](CO)O2)c(=O)[nH]c1=O
inhibition [1]: Active

CC(NC(=O)c1ccccc1)c1nn(-c2ccc(C#N)cc2)c2c1C(=O)CC(C)(C)C2 (racemic)
EC50 [2]: Not Active

CC(N)c1nn(-c2ccc(C(=O)O)cc2)c2c1C(=O)CC(C)(C)C2.Cl (racemic)
EC50 [2]: Not Active

CC(NC(=O)c1ccccc1)c1nn(-c2ccc(C(N)=O)cc2)c2c1C(=O)CC(C)(C)C2 (racemic)
selectivity ratio [3]: 68
inhibition [1]: Active
inhibition [4]: inactive
inhibition [5]: Active
CC50 [6]: 119 µM
inhibition [7]: Active
EC50 ([2]; Human immunodeficiency virus 1, MT4, read-out: EC50): 2.77 µM
inhibition [8]: Active
inhibition [9]: inactive
